According to US6825348B2, “Antiviral compounds” (Academia Sinica, priority 2002, dated 2004):
Values after ≈ are worked out from the molar mass of the structure shown. Like-named read-outs stand apart in the source and are kept apart here.

Tests used:
[1] = test system: moloney murine sarcoma virus (MSV); assay: Inhibition of MSV cytopathogenicity in CEM cells (cell-protection assay); type: cell-based; settings: Moloney murine sarcoma virus, CCRF-CEM; CEM cells, average of duplicates; read-out: IC50 MSV
[2] = test system: herpes simplex type 1 virus (HSV-1) (KOS); assay: Inhibition of HSV-1 cytopathogenicity in Vero cell culture; type: cell-based; settings: read-out: IC50 HSV-1 (KOS)
[3] = test system: CEM cells; assay: Toxicity toward CEM cells
[4] = test system: HeLa cells; assay: Toxicity, morphological changes in HeLa cells
[5] = test system: Vero cells; assay: Toxicity, morphological changes in Vero cells
[6] = test system: HIV-1 (IIIB); assay: microbe, parasite or virus in culture; type: cell-based; settings: Human immunodeficiency virus 1, IIIB; MT4 cells, average of duplicates; read-out: IC50 HIV-1 (IIIB)
[7] = target: PRPP synthetase (UniProt P0A717); assay: PRPP synthetase reaction, conversion to diphosphates and inhibition of AMP phosphorylation; type: biochemical; settings: inhibition of AMP phosphorylation, 37° C., 15 min
Procedure: Enzymatic Conversion of Acyclic Nucleoside Phosphonates and Nucleotide 5′-Monophosphate Analog to Their Antivirally Active Diphosphates (Triphosphate Equivalents). Substrate affinities of acyclic nucleoside phosphonates 4, 20, 21, and dinucleotide analog 24 for PRPP synthetase as well as their inhibitory effect against the enzyme were evaluated according to the established procedures. See, e.g., Balzarini et al. (1991) J. Biol. Chem. 266: 8686-8689 and references cited therein. The assays were then terminated after 4 h by the addition of MeOH. HPLC on an anion-exchange Partisphere column was used to analyze the formation of […] 21pp, PMEApp, 4pp, 20pp, and 24pp.

[8] = Solubility in water (phosphate buffer, UV absorbance); settings: pH 6.8, aqueous buffer, thermodynamic from solid
[9] = test system: HIV-2 (LAV-2); assay: Inhibition of HIV-2 cytopathogenicity in MT4 cells; type: cell-based, human immunodeficiency virus; settings: Human immunodeficiency virus 2; MT4 cells, average of duplicates; read-out: IC50 HIV-2 (LAV-2)
[10] = test system: HSV-1 (KOS); assay: Anti-HSV-1 activity in vivo, HSV-1-induced mortality in NMRI mice; settings: 6 days; for mean day of animal death / mean day of symptom initiation: terminated day 21; for responders at 100 mg/kg / responders at 150 mg/kg / responders at 250 mg/kg: Human alphaherpesvirus 1, ip, 504 h; for protection against HSV-induced mortality: 150 mg/kg dose level i.p.
[11] = target: T1, calf mucosal adenosine deaminase (ADA, EC 3.5.4.4) (Bos taurus, UniProt P56658); assay: Substrate activity and competitive inhibition of adenosine deaminase; type: biochemical; settings: for Ki: inhibition of ADA with ara-A 3 as substrate
T1 sequence (P56658 1-363): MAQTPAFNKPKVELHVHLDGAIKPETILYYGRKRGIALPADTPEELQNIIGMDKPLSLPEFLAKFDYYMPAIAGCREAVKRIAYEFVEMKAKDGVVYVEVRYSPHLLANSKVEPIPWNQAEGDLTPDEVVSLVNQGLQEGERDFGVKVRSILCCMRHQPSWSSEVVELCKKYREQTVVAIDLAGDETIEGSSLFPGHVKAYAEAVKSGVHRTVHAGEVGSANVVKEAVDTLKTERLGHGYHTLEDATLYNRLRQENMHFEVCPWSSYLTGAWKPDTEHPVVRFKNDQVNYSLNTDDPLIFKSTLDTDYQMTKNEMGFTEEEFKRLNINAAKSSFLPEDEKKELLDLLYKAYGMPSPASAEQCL

[12] = test system: human cytomegalovirus (AD-169); assay: Inhibition of HCMV cytopathogenicity in Vero cell culture; type: cell-based; settings: Human betaherpesvirus 5, AD169; Vero cell culture; 50% inhibition of cytopathogenicity; for 1:1 mixtures IC50 refers to known antiviral drugs; read-out: IC50 HCMV (AD-169)
[13] = Lipophilicity, 1-octanol/water partition coefficient
[14] = test system: thymidine kinase-deficient (TK−) varicella-zoster virus (YS/R); assay: microbe, parasite or virus in culture; type: cell-based; settings: Human alphaherpesvirus 3, Vero, read-out: IC50 TK−VZV (YS/R)
[15] = test system: MT4 cells; assay: Toxicity toward MT4 cells
[16] = test system: Vero cells; settings: African green monkey
[17] = test system: thymidine kinase-positive (TK+) varicella-zoster virus (YS); assay: Inhibition of TK+ VZV cytopathogenicity in Vero cell culture; type: cell-based
[18] = test system: Snake venom phosphodiesterase; assay: Activity of snake venom phosphodiesterase against nucleotide analogs; settings: pH 9.2, 37° C., 8 h
[19] = LD50 and toxicity in mice, intraperitoneal
[20] = test system: HeLa cells; settings: human
[21] = test system: MSV; settings: for mean day of animal death / percentage of MSV-infected mice alive at day 21 postinfection / percentage of MSV-infected mice without tumors at day 21 postinfection: two injections; for mean day of tumor initiation: two injections within two days
[22] = Human alphaherpesvirus 1, Vero cell culture, 50% inhibition of virus-induced cytopathogenicity, mean of duplicates, for 1:1 (W/W) mixtures IC50 refers to known antiviral drugs
[23] = 100 mg/kg/day i.p., read-out: percentage of HSV-1-infected mice alive at day 21 postinfection
[24] = 100 mg/kg/day i.p., read-out: percentage of HSV-1-infected mice without symptoms at day 21 postinfection
[25] = 150 mg/kg/day i.p., read-out: percentage of HSV-1-infected mice alive at day 21 postinfection
[26] = 150 mg/kg/day i.p., read-out: percentage of HSV-1-infected mice without symptoms at day 21 postinfection
[27] = 250 mg/kg/day i.p., read-out: percentage of HSV-1-infected mice alive at day 21 postinfection
[28] = 250 mg/kg/day i.p., read-out: percentage of HSV-1-infected mice without symptoms at day 21 postinfection

Compound: Nc1ncnc2ncn(CCOCP(=O)(O)O)c12 [Compound 20, 7-[2-(Phosphonomethoxy)ethyl]adenine]
- IC50 [1]: 27 µg/mL (≈ 98.8 µM)
- IC50 [2, 22]: 20 µg/mL (≈ 73.2 µM)
- CEM cell, concentration reducing the number of viable uninfected cells by 50% [3]: >300 µg/mL
- HeLa cell, concentration causing microscopically visible change or disruption in about 50% of the cell sheet [4]: 236 µg/mL
- Vero cell, concentration causing microscopically visible change or disruption in about 50% of the cell sheet [5]: 246 µg/mL
- IC50 [6]: 7.8 µg/mL (≈ 28.6 µM)
- Ki [7]: 16.7 mM
- solubility at 20 h [8]: 2890 µg/mL (≈ 10600 µM)
- IC50 [9]: 9.1 µg/mL (≈ 33.3 µM)
- mean day of animal death ([10]; 100 mg/kg/day i.p.): 15.4 ± 1.3 days
- mean day of symptom initiation ([10]; 100 mg/kg/day i.p.): 12.8 ± 1.1 days
- mean day of animal death ([10]; 150 mg/kg/day i.p.): 17.8 ± 1.5 days
- mean day of symptom initiation ([10]; 150 mg/kg/day i.p.): 15.0 ± 0.9 days
- mean day of animal death ([10]; 250 mg/kg/day i.p.): 20.0 ± 1.7 days
- mean day of symptom initiation ([10]; 250 mg/kg/day i.p.): 16.8 ± 2.4 days
- responders at 100 mg/kg [10, 23]: 70%
- responders at 100 mg/kg [10, 24]: 51%
- responders at 150 mg/kg [10, 25]: 80%
- responders at 150 mg/kg [10, 26]: 62%
- responders at 250 mg/kg [10, 27]: 95%
- responders at 250 mg/kg [10, 28]: 75%
- ADA substrate / inhibitor property in words [11]: neither a good substrate nor an inhibitor
- Ki [11]: > 0.8 mM
- IC50 [12]: 21 µg/mL (≈ 76.9 µM)
- logP at […] [13]: 0.95
- IC50 [14]: 8 µg/mL (≈ 29.3 µM)
- MT4 cell, concentration reducing the number of viable uninfected cells by 50% [15]: >300 µg/mL

Compound: COC1=C(OC)/C(=C/COP(=O)(O)OC[C@H]2O[C@@H](n3cnc4c(N)ncnc43)[C@H](O)[C@@H]2OP(=O)(O)COCCn2cnc3ncnc(N)c32)OC1=O [Compound 25, 9-[[(Z)-4-(ethylidene)-2,3-dimethoxy-Δ^a,b-butenolide]-β-D-furanosyl]adenine-3′-[[1-(adenin-7-yl-ethoxy)methyl]phosphonate]-4,5′-phosphate]
- IC50 [1]: 13 µg/mL (≈ 16.9 µM)
- IC50 ([2]; Human alphaherpesvirus 1, Vero): 3 µg/mL (≈ 3.89 µM)
- CEM cell, concentration reducing the number of viable uninfected cells by 50% [3]: >300 µg/mL
- Vero cell, concentration causing microscopically visible change or disruption in about 50% of the cell sheet [16]: 350 µg/mL
- IC50 TK+VZV (YS) [17]: 1.7 µg/mL (≈ 2.21 µM)
- stability to snake venom phosphodiesterase in words [18]: completely resistant
- IC50 [6]: 4.9 µg/mL (≈ 6.36 µM)
- LD50 ([19]; NMRI, mouse, in vivo, ip): 675 mg/kg
- level up to which no toxicity was shown ([19]; mice, intraperitoneal): 400 mg/kg
- solubility at 20 h ([8]; phosphate buffer): 5160 µg/mL (≈ 6700 µM)
- IC50 [9]: 4.2 µg/mL (≈ 5.45 µM)
- HeLa cell, concentration causing microscopically visible change or disruption in about 50% of the cell sheet [20]: 326 µg/mL
- mean day of animal death ([10]; 100 mg/kg/day i.p.): >21 days
- mean day of symptom initiation ([10]; 100 mg/kg/day i.p.): 19.6 ± 1.5 days
- protection against HSV-induced mortality [10]: full protection
- mean day of animal death ([10]; 150 mg/kg/day i.p.): >21 days
- mean day of symptom initiation ([10]; 150 mg/kg/day i.p.): >21 days
- mean day of animal death ([10]; 250 mg/kg/day i.p.): >21 days
- mean day of symptom initiation ([10]; 250 mg/kg/day i.p.): >21 days
- responders at 100 mg/kg [10, 23]: 100%
- responders at 100 mg/kg [10, 24]: 94%
- responders at 150 mg/kg [10, 25]: 100%
- responders at 150 mg/kg [10, 26]: 100%
- responders at 250 mg/kg [10, 27]: 100%
- responders at 250 mg/kg [10, 28]: 100%
- ADA substrate / inhibitor property in words [11]: neither a good substrate nor an inhibitor
- IC50 [12]: 4.1 µg/mL (≈ 5.32 µM)
- logP at […] ([13]; 1-octanol/water (0.10 M phosphate buffer)): 1.37
- IC50 [14]: 2 µg/mL (≈ 2.6 µM)
- MT4 cell, concentration reducing the number of viable uninfected cells by 50% [15]: >300 µg/mL

Compound: Nc1ncnc2c1ncn2CCOCP(=O)(O)O [PMEA 4, 9-[2-(phosphonomethoxy)ethyl]adenine, reference compound]
- IC50 [1]: 2 µg/mL (≈ 7.32 µM)
- IC50 [2, 22]: 11 µg/mL (≈ 40.3 µM)
- CEM cell, concentration reducing the number of viable uninfected cells by 50% [3]: 285 µg/mL
- HeLa cell, concentration causing microscopically visible change or disruption in about 50% of the cell sheet [4]: 146 µg/mL
- Vero cell, concentration causing microscopically visible change or disruption in about 50% of the cell sheet [5]: 175 µg/mL
- mean day of animal death ([21]; 10 mg/kg/day i.p.): 13.0 ± 1.1 days
- percentage of MSV-infected mice alive at day 21 postinfection ([21]; 10 mg/kg/day i.p.): (42%)
- percentage of MSV-infected mice without tumors at day 21 postinfection ([21]; 10 mg/kg/day i.p.): (19%)
- mean day of tumor initiation ([21]; 10 mg/kg/day i.p.): 9.6 ± 1.5 days
- percentage of MSV-infected mice without tumors at day 21 postinfection ([21]; 10 mg/kg/day i.p., listed as 4): 19%
- mean day of animal death ([21]; 20 mg/kg/day i.p.): 15.9 ± 1.7 days
- percentage of MSV-infected mice alive at day 21 postinfection ([21]; 20 mg/kg/day i.p.): (76%)
- percentage of MSV-infected mice without tumors at day 21 postinfection ([21]; 20 mg/kg/day i.p.): (58%)
- mean day of tumor initiation ([21]; 20 mg/kg/day i.p.): 12.0 ± 1.3 days
- mean day of animal death ([21]; 50 mg/kg/day i.p.): 17.8 ± 2.0 days
- percentage of MSV-infected mice alive at day 21 postinfection ([21]; 50 mg/kg/day i.p.): (96%)
- percentage of MSV-infected mice without tumors at day 21 postinfection ([21]; 50 mg/kg/day i.p.): (84%)
- mean day of tumor initiation ([21]; 50 mg/kg/day i.p.): 12.5 ± 1.6 days
- IC50 [6]: 4.1 µg/mL (≈ 15 µM)
- Ki [7]: 3.02 mM
- solubility at 20 h [8]: 1970 µg/mL (≈ 7210 µM)
- IC50 [9]: 3.8 µg/mL (≈ 13.9 µM)
- mean day of animal death ([10]; 100 mg/kg/day i.p.): 17.0 ± 1.1 days
- mean day of symptom initiation ([10]; 100 mg/kg/day i.p.): 14.7 ± 1.4 days
- protection against HSV-induced mortality [10]: full protection
- mean day of animal death ([10]; 150 mg/kg/day i.p.): >21 days
- mean day of symptom initiation ([10]; 150 mg/kg/day i.p.): 18.5 ± 1.9 days
- mean day of animal death ([10]; 250 mg/kg/day i.p.): >21 days
- mean day of symptom initiation ([10]; 250 mg/kg/day i.p.): >21 days
- responders at 100 mg/kg [10, 23]: 77%
- responders at 100 mg/kg [10, 24]: 56%
- responders at 150 mg/kg [10, 25]: 100%
- responders at 150 mg/kg [10, 26]: 80%
- responders at 250 mg/kg [10, 27]: 100%
- responders at 250 mg/kg [10, 28]: 100%
- ADA substrate / inhibitor property in words [11]: neither a good substrate nor an inhibitor
- Ki [11]: > 0.8 mM
- IC50 [12]: 15 µg/mL (≈ 54.9 µM)
- logP at […] [13]: 0.69
- MT4 cell, concentration reducing the number of viable uninfected cells by 50% [15]: 274 µg/mL
